# Measured values: publication PMC12833730, “Discovery of a First‐in‐Class Covalent Allosteric SHP1 Inhibitor with Immunotherapeutic Activity” (Angewandte Chemie (International Ed. in English), 2025)
# “Also recorded” adds a separate entry of the source.
# Columns and labels:
# [1] = test system: MC38 colorectal tumors; experiment: MC38 syngeneic tumor model; type: in vivo, C57BL/6 mice
# Experimental: Given its favorable PK profiles, we evaluated the antitumor activity of M029 in C57BL/6 mice bearing MC38 colorectal tumors. Mice bearing established tumors were given once daily with either saline, 25 mg/kg (IP), 25 mg/kg (PO), or 100 mg/kg (PO) M029.
# Figure 5 M029 inhibits syngeneic MC38 tumor growth by promoting infiltration and activation of both T cells and NK cells in the tumor microenvironment. […] This T cell activation was further supported by i) the increased effector CD8^+ population in the tumor microenvironment. […] Statistical analyses were performed with Graphpad Prism software 10.4.2 through the student t test or the one‐way ANOVA test using Turkey post‐hoc comparison. *p < 0.05, **p < 0.01, ***p < 0.001, and ****p < 0.0001 were considered significant. Figures are plotted as average ± standard error of the mean (SEM).
# All the in vivo studies were performed under an animal protocol (1511001324) approved by the Institutional Animal Care & Use Committee of Purdue University, in accordance with the recommendations in the Guide for the Care and Use of Laboratory Animals of the National Institutes of Health. For PK study, C57BL6 female mice (25-30g body weight) were injected intraperitoneally, orally, or intravenously with 25 mg/kg M029 dissolved in 0.4 ml saline. Blood samples were collected through the tail vein at the indicated time points after injection. Isoflurane was used as an anesthetic. All blood samples were centrifuged at 1,500 g for 5 minutes, and plasma was separated and stored at –80°C until analysis by a validated method based on reversed-phase liquid chromatography coupled to mass-spectrometric detection (LC/MS) using a previously published procedure.^169 For the MC38 syngeneic tumor study, 12-week-old C57BL6 female mice were injected subcutaneously with […] MC38 cells in the right and left flanks for tumor growth. When tumors reached an average volume of 100 mm^3 mice were tumor size-matched and randomly assigned to different experimental groups for experiments. Four mice with eight tumors were used in each treatment group. Mice were injected orally with saline or 25 or 100 mg/kg M029 daily. Tumor sizes and animal weights were measured twice per week. Tumor volume (mm^3) = (length X width^2)/2. At the end of the experiments, mice were euthanized, and tumors were collected for analysis. Among eight tumors collected from each group, four homogenous samples and […] were prepared for Western blots and histology analysis.
# [2] = test system: IL-2 in Jurkat T cells; experiment: IL-2 mRNA / production; type: cell-based; conditions: dose response
# Experimental: Supernatants from lysed cells were reduced, treated with iodoacetamide to cap thiol residues, and digested by trypsin for bottom‐up proteomics analysis. […] LCK is the direct substrate of SHP1 and ERK1/2, and PLCγ is the downstream effector protein of LCK‐mediated TCR signaling. […] Statistical analyses were performed with Graphpad Prism software 10.4.2 through the one‐way ANOVA test using Turkey post‐hoc comparison. ****p < 0.0001 was considered significant.
# To further confirm M029 cellular target engagement, we investigated the effect of M029 on T cell function. SHP1 plays a negative role in T cells, and deletion of SHP1 in T cells lowers the activation threshold and enhances antitumor immunity.^[ [30], [31], [32], [33] ^] Mechanistically, SHP1 attenuates T cell receptor (TCR) signaling via dephosphorylation of the lymphocyte‐specific protein tyrosine kinase LCK.^[ [31], [84], [85], [86] ^] T cell activation leads to increased expression and secretion of interleukin 2 (IL‐2)^[ [87] ^] while the removal of SHP1 in T cells enhances IL‐2 production, cell proliferation, and cytolysis capacity.^[ [30], [32] ^] Accordingly, we sought to assess the impact of targeting SHP1 with M029 on TCR‐LCK signaling and T cell activation. […] M029 also dose‐dependently promoted IL‐2 production (Figure 4c). […] These findings corroborate that the observed increase in LCK phosphorylation and its downstream signaling indeed resulted from SHP1 inhibition by M029.
# [3] = test system: MC38 colorectal tumors; experiment: MC38 syngeneic tumor model; type: in vivo, C57BL/6 mice; conditions: IP 15 mg/kg as printed in Figure S5
compound,measurement,setting,value
"N#Cc1ccsc1NS(=O)(=O)c1ccc(NC(=O)CCl)cc1 [M029, 2-Chloro-N-(4-(N-(3-cyanothiophen-2-yl)sulfamoyl)phenyl)acetamide]",body weight,[1]; 25 or 100 mg/kg oral,no significant changes
same,tumor volume and tumor weight,[1]; 25 or 100 mg/kg oral vs vehicle,significant decreases
same,kidney and liver tissue sections,"[1]; IP dosing, Figure S5",No significant lesion or tissue changes
same,"MC38 tumor progression, 25 mg/kg IP",[1]; once daily IP injection 25 mg/kg,effectively halted tumor progression
same,"MC38 tumor progression, 25 mg/kg PO","[1]; once daily oral gavage 25 mg/kg, 25 mg/kg",effectively halted tumor progression; also recorded: significantly delayed
same,"MC38 tumor progression, 100 mg/kg PO","[1]; once daily oral gavage 100 mg/kg, 100 mg/kg",effectively halted tumor progression; also recorded: significantly delayed
same,signs of toxicity,"[1]; up to 100 mg/kg, body weight and organ histology",no obvious signs of toxicity
same,IL-2 production / relative IL-2 mRNA level,[2],increased; also recorded: promoted
same,"MC38 tumor progression, IP dosage",[3],delayed MC38 tumor progression
